Measured values reported in US12344597B2, “Alkoxy-substituted pyridinyl derivatives as LPA1 receptor antagonists and their use in the treatment of fibrosis” (IDORSIA PHARMACEUTICALS LTD, priority 2018, dated 2025).

Molecular target: human LPA1 receptor (Homo sapiens (Human), UniProt Q92633)
Test: Beta-arrestin recruitment assay to determine IC50 values for human LPAR1
Format: cell-based
Conditions: antagonist mode, Tango EDG2-bla U2OS cells, LPA 18:1 500 nM final
Summary of the method: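 Tango EDG2-bla U2OS cells: LPA-driven beta-arrestin/TEV protease recruitment releases Gal4-VP16, inducing beta-lactamase reporter read with live-cell substrate. Cells seeded 20 h at 37 °C beforehand. IC50 is antagonist concentration inhibiting 50% of maximal response.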

Sequence of human LPA1 receptor (Q92633 whole entry): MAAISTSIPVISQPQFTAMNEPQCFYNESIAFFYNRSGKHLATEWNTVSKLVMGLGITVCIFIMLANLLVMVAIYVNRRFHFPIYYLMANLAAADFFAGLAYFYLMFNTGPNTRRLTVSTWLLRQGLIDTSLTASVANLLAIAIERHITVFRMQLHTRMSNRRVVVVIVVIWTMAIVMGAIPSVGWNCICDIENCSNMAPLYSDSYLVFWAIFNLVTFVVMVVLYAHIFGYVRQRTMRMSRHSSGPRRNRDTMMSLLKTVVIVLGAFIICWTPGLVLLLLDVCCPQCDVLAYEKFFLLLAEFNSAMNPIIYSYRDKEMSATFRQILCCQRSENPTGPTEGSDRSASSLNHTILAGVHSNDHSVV

Row | SMILES | IC50 [nM]
1 | Cc1cnc(NC(=O)C2(c3ccccc3C(C)C)CN(C(=O)CC3(C(=O)O)CCC3)C2)c(OC(F)F)c1 [Ex 79-7, 1-(2-(3-((3-(difluoromethoxy)-5-methylpyridin-2-yl)carbamoyl)-3-(2-isopropylphenyl)azetidin-1-yl)-2-oxoethyl)cyclobutane-1-carboxylic acid] | 61
2 | Cc1ccc(NC(=O)C2(c3ccccc3C3CC3)CN(C(=O)CC(C)(C)C(=O)O)C2)c(OC(F)F)n1 [Ex 31-1, 4-(3-(2-cyclopropylphenyl)-3-((2-(difluoromethoxy)-6-methylpyridin-3-yl)carbamoyl)azetidin-1-yl)-2,2-dimethyl-4-oxobutanoic acid] | 19
3 | Cc1ccc(NC(=O)C2(c3ccccc3C(C)C)CCNC2)c(OC(F)F)n1 (stereo not shown) [Ex 10, N-(2-(difluoromethoxy)-6-methylpyridin-3-yl)-3-(2-isopropylphenyl)pyrrolidine-3-carboxamide] | 7
4 | Cc1ccc(NC(=O)C2(c3ccccc3C(C)C)CN(C(=O)CN(C)CC(=O)O)C2)c(OC(F)F)n1 [Ex 12-142, N-(2-(3-((2-(difluoromethoxy)-6-methylpyridin-3-yl)carbamoyl)-3-(2-isopropylphenyl)azetidin-1-yl)-2-oxoethyl)-N-methylglycine] | 18
5 | Cc1ccc(NC(=O)C2(c3ccccc3C(C)C)CN(C(=O)[C@@H]3C[C@@H]3C(=O)O)C2)c(OC(F)F)n1 [Ex 12-95, (1S,2R)-2-(3-((2-(difluoromethoxy)-6-methylpyridin-3-yl)carbamoyl)-3-(2-isopropylphenyl)azetidine-1-carbonyl)cyclopropane-1-carboxylic acid] | 14
6 | Cc1ccc(NC(=O)C2(c3ccccc3C(C)C)CCN(C(=O)CC(C)(C)C(=O)O)C2)c(OC(F)F)n1 (stereo not shown) [Ex 12-83, 4-(3-((2-(difluoromethoxy)-6-methylpyridin-3-yl)carbamoyl)-3-(2-isopropylphenyl)pyrrolidin-1-yl)-2,2-dimethyl-4-oxobutanoic acid] | 24
7 | Cc1ccc(NC(=O)C2(c3ccccc3C(C)C)CCN(C(N)=O)CC2)c(OC(F)F)n1 [Ex 17-20, N4-(2-(difluoromethoxy)-6-methylpyridin-3-yl)-4-(2-isopropylphenyl)piperidine-1,4-dicarboxamide] | 11
8 | CC(=O)NS(=O)(=O)N(C)CC(=O)N1CC(C(=O)Nc2ccc(C)nc2OC(F)F)(c2ccccc2C(C)C)C1 [Ex 16-5, 1-(N-(N-acetylsulfamoyl)-N-methylglycyl)-N-(2-(difluoromethoxy)-6-methylpyridin-3-yl)-3-(2-isopropylphenyl)azetidine-3-carboxamide] | 47
9 | Cc1ccc(NC(=O)C2(c3ccccc3C(C)C)CN(C(=O)CN[C@@H](C)CO)C2)c(OC(F)F)n1 [Ex 12-59, (S)-N-(2-(difluoromethoxy)-6-methylpyridin-3-yl)-1-((R)-(1-hydroxypropan-2-yl)glycyl)-3-(2-isopropylphenyl)azetidine-3-carboxamide] | 10
10 | COCCN(CC(=O)O)CC(=O)N1CC(C(=O)Nc2ccc(C)nc2OC(F)F)(c2ccccc2C(C)C)C1 [Ex 55] | 44
11 | CCOC(=O)c1cn[nH]c1S(=O)(=O)N1CC(C(=O)Nc2ccc(C)nc2OC(F)F)(c2ccccc2C(C)C)C1 [Ex 13-24, ethyl 5-((3-((2-(difluoromethoxy)-6-methylpyridin-3-yl)carbamoyl)-3-(2-isopropylphenyl)azetidin-1-yl)sulfonyl)-1H-pyrazole-4-carboxylate] | 750
12 | Cc1ccc(NC(=O)C2(c3ccccc3C3CCOCC3)CN(C(=O)CC(C)(C)C(=O)O)C2)c(OC(F)F)n1 [Ex 31-6, 4-(3-((2-(difluoromethoxy)-6-methylpyridin-3-yl)carbamoyl)-3-(2-(tetrahydro-2H-pyran-4-yl)phenyl)azetidin-1-yl)-2,2-dimethyl-4-oxobutanoic acid] | 185
13 | Cc1ccc(NC(=O)C2(c3ccccc3C(C)C)CN(CCC3(C(=O)O)CCC3)C2)c(OC(F)F)n1 [Ex 11-73, 1-(2-(3-((2-(difluoromethoxy)-6-methylpyridin-3-yl)carbamoyl)-3-(2-isopropylphenyl)azetidin-1-yl)ethyl)cyclobutane-1-carboxylic acid] | 46
